In PMC11157767 (Molecular Cancer, 2024):

System: TRIM24-MET-i cells
Conditions: GSEA, v. DMSO
Method: The number of unique and shared differentially expressed genes between each comparison are shown in parentheses. A linear regression line is depicted along with Pearson’s correlation coefficient (r) and its associated p-value. […] Common negatively enriched genesets between all three comparisons are in bold. c, Heatmaps showing expression of Hallmark_Myc_Target_v1/2 genes for indicated cells and treatment comparisons (TRIM-MET cells were treated in vitro, TFG-MET cells in vivo). Select leading edge genes from GSEA are labeled.

SMILES: C[C@@H](Oc1cc(-c2cnn(C3CCNCC3)c2)cnc1N)c1c(Cl)ccc(F)c1Cl [Crizotinib]
- ES GOCC_MITOCHONDRIAL_ENVELOPE: -0.5203
- ES GOCC_ORGANELLE_INNER_MEMBRANE: -0.5635
- ES GOCC_PRERIBOSOME: -0.8837
- ES GOCC_RIBONUCLEOPROTEIN_COMPLEX: -0.6028
- ES GOCC_RIBOSOME: -0.6378
- ES GOMF_STRUCTURAL_CONSTITUENT_OF_RIBOSOME: -0.6065
- ES HALLMARK_ADIPOGENESIS: -0.3925
- ES HALLMARK_ALLOGRAFT_REJECTION: -0.3891
- ES HALLMARK_ANDROGEN_RESPONSE: -0.4501
- ES HALLMARK_ANGIOGENESIS: -0.5001
- ES HALLMARK_APICAL_JUNCTION: -0.2207
- ES HALLMARK_APICAL_SURFACE: 0.438
- ES HALLMARK_APOPTOSIS: -0.353
- ES HALLMARK_CHOLESTEROL_HOMEOSTASIS: -0.4271
- ES HALLMARK_COAGULATION: -0.3066
- ES HALLMARK_COMPLEMENT: -0.2741
- ES HALLMARK_DNA_REPAIR: -0.3968
- ES HALLMARK_E2F_TARGETS: -0.4061
- ES HALLMARK_EPITHELIAL_MESENCHYMAL_TRANSITION: -0.2384
- ES HALLMARK_ESTROGEN_RESPONSE_EARLY: -0.4462
- ES HALLMARK_ESTROGEN_RESPONSE_LATE: -0.2995
- ES HALLMARK_G2M_CHECKPOINT: -0.4157
- ES HALLMARK_GLYCOLYSIS: -0.4578
- ES HALLMARK_HEDGEHOG_SIGNALING: -0.4357
- ES HALLMARK_HYPOXIA: -0.2949
- ES HALLMARK_IL2_STAT5_SIGNALING: -0.5104
- ES HALLMARK_IL6_JAK_STAT3_SIGNALING: -0.3352
- ES HALLMARK_INFLAMMATORY_RESPONSE: -0.4227
- ES HALLMARK_INTERFERON_ALPHA_RESPONSE: 0.333
- ES HALLMARK_INTERFERON_GAMMA_RESPONSE: -0.2664
- ES HALLMARK_KRAS_SIGNALING_DN: 0.421
- ES HALLMARK_KRAS_SIGNALING_UP: -0.3522
- ES HALLMARK_MITOTIC_SPINDLE: 0.3203
- ES HALLMARK_MTORC1_SIGNALING: -0.615
- ES HALLMARK_MYC_TARGETS_V1: -0.7224
- ES HALLMARK_MYC_TARGETS_V2: -0.8712
- ES HALLMARK_MYOGENESIS: 0.2133
- ES HALLMARK_NOTCH_SIGNALING: -0.3408
- ES HALLMARK_OXIDATIVE_PHOSPHORYLATION: -0.5351
- ES HALLMARK_P53_PATHWAY: -0.3345
- ES HALLMARK_PANCREAS_BETA_CELLS: 0.2531
- ES HALLMARK_PEROXISOME: -0.2701
- ES HALLMARK_PI3K_AKT_MTOR_SIGNALING: -0.3822
- ES HALLMARK_PROTEIN_SECRETION: -0.253
- ES HALLMARK_TGF_BETA_SIGNALING: -0.4216
- ES HALLMARK_TNFA_SIGNALING_VIA_NFKB: -0.4566
- ES HALLMARK_UNFOLDED_PROTEIN_RESPONSE: -0.6894
- ES HALLMARK_UV_RESPONSE_DN: 0.2824
- ES HALLMARK_UV_RESPONSE_UP: -0.4491
- ES HALLMARK_WNT_BETA_CATENIN_SIGNALING: -0.3428
- ES KRIGE_RESPONSE_TO_TOSEDOSTAT_6HR_DN: -0.7282
- ES KRIGE_RESPONSE_TO_TOSEDOSTAT_24HR_DN: -0.7493
- ES LEE_BMP2_TARGETS_DN: -0.726
- ES PUJANA_CHEK2_PCC_NETWORK: -0.6234
- ES WEI_MYCN_TARGETS_WITH_E_BOX: -0.7486
- NES GOBP_NCRNA_PROCESSING: -2.807
- NES GOBP_RIBONUCLEOPROTEIN_COMPLEX_BIOGENESIS: -2.6966
- NES GOBP_RIBOSOME_BIOGENESIS: -2.885
- NES GOCC_MITOCHONDRIAL_ENVELOPE: -1.997
- NES GOCC_ORGANELLE_INNER_MEMBRANE: -2.127
- NES GOCC_PRERIBOSOME: -2.754
- NES GOCC_RIBONUCLEOPROTEIN_COMPLEX: -2.312
- NES GOCC_RIBOSOME: -2.274
- NES GOMF_STRUCTURAL_CONSTITUENT_OF_RIBOSOME: -2.105
- NES HALLMARK_ADIPOGENESIS: -1.373
- NES HALLMARK_ALLOGRAFT_REJECTION: -1.343
- NES HALLMARK_ANDROGEN_RESPONSE: -1.464
- NES HALLMARK_ANGIOGENESIS: -1.355
- NES HALLMARK_APICAL_JUNCTION: -0.7717
- NES HALLMARK_APICAL_SURFACE: 1.391
- NES HALLMARK_APOPTOSIS: -1.211
- NES HALLMARK_CHOLESTEROL_HOMEOSTASIS: -1.341
- NES HALLMARK_COMPLEMENT: -0.9577
- NES HALLMARK_DNA_REPAIR: -1.352
- NES HALLMARK_E2F_TARGETS: -1.43
- NES HALLMARK_EPITHELIAL_MESENCHYMAL_TRANSITION: -0.8343
- NES HALLMARK_ESTROGEN_RESPONSE_EARLY: -1.563
- NES HALLMARK_ESTROGEN_RESPONSE_LATE: -1.046
- NES HALLMARK_G2M_CHECKPOINT: -1.457
- NES HALLMARK_GLYCOLYSIS: -1.603
- NES HALLMARK_HEDGEHOG_SIGNALING: -1.2
- NES HALLMARK_HYPOXIA: -1.03
- NES HALLMARK_IL2_STAT5_SIGNALING: -1.788
- NES HALLMARK_IL6_JAK_STAT3_SIGNALING: -1.065
- NES HALLMARK_INFLAMMATORY_RESPONSE: -1.474
- NES HALLMARK_INTERFERON_ALPHA_RESPONSE: 1.217
- NES HALLMARK_INTERFERON_GAMMA_RESPONSE: -0.9329
- NES HALLMARK_KRAS_SIGNALING_DN: 1.674
- NES HALLMARK_KRAS_SIGNALING_UP: -1.231
- NES HALLMARK_MITOTIC_SPINDLE: 1.318
- NES HALLMARK_MTORC1_SIGNALING: -2.165
- NES HALLMARK_MYC_TARGETS_V1: -2.537
- NES HALLMARK_MYC_TARGETS_V2: -2.6498
- NES HALLMARK_MYOGENESIS: 0.8749
- NES HALLMARK_NOTCH_SIGNALING: -0.9083
- NES HALLMARK_OXIDATIVE_PHOSPHORYLATION: -1.871
- NES HALLMARK_P53_PATHWAY: -1.1707
- NES HALLMARK_PANCREAS_BETA_CELLS: 0.7398
- NES HALLMARK_PEROXISOME: -0.8785
- NES HALLMARK_PI3K_AKT_MTOR_SIGNALING: -1.243
- NES HALLMARK_PROTEIN_SECRETION: -0.8206
- NES HALLMARK_TGF_BETA_SIGNALING: -1.271
- NES HALLMARK_TNFA_SIGNALING_VIA_NFKB: -1.6076
- NES HALLMARK_UNFOLDED_PROTEIN_RESPONSE: -2.272
- NES HALLMARK_UV_RESPONSE_DN: 1.115
- NES HALLMARK_UV_RESPONSE_UP: -1.536
- NES HALLMARK_WNT_BETA_CATENIN_SIGNALING: -0.9746
- NES KRIGE_RESPONSE_TO_TOSEDOSTAT_6HR_DN: -2.811
- NES KRIGE_RESPONSE_TO_TOSEDOSTAT_24HR_DN: -2.908
- NES LEE_BMP2_TARGETS_DN: -2.799
- NES PUJANA_CHEK2_PCC_NETWORK: -2.394
- NES WEI_MYCN_TARGETS_WITH_E_BOX: -2.882
